# In US6476056B2, “Heterocycle substituted aryloxyaniline derivatives and their use as MDR ligands” (Taisho Pharmaceutical Co., Ltd., priority 1997, dated 2002):
# Target: T1, MDR (Rattus norvegicus, UniProt P16257)
# T1 construct: Crude mitochondria fractions prepared from rat cerebral cortex were used as a receptor sample; from tissue; host or cells: rat cerebral cortex, crude mitochondria fraction
# Assay: MDR receptor binding assay ([3H]PK11195 displacement)
# Conditions: 50% inhibition of [3H]PK11195 (2 nM) binding; crude mitochondria fraction from rat cerebral cortex; 4° C., 90 minutes
# Procedure: Experiment [MDR Receptor Binding Assay]
# Crude mitochondria fractions prepared from rat cerebral cortex were used as a receptor sample, and [^3H]PK11195 was used as a [^3H]-labeled ligand.
# A binding assay using the [^3H]-labeled ligand was carried out according to the following method as described in Journal of Pharmacology and Experimental Therapeutics, 262, 971(1992).
# Preparation of Receptor Sample: Rat cerebral cortex was homogenized using a Teflon-coated homogenizer in a 10 mM HEPES buffer (pH 7.4) containing 0.32 M sucrose in ten volumes of the wet weight. The homogenate was centrifuged at 900×g for 10 minutes, and the resulting supernatant was centrifuged at 9,000×g for 10 minutes. The precipitate was suspended in a HEPES buffer to give a protein concentration of 1 mg/ml, and centrifuged at 12,000×g for 10 minutes. The resulting precipitate was suspended in a 50 mM HEPES buffer (pH 7.4) to give a crude mitochondria fraction.
# MDR Binding Assay: Mitochondria sample (1.0 mg protein/ml), [^3H]PK11195 (2 nM) and the test drug were reacted at 4° C. for 90 minutes. After completion of the reaction, the reaction mixture was filtered with suction through a glass filter (GF/B) treated with 0.3% polyethyleneimine, and the radioactivity on the filter was measured by a liquid scintillation spectrometer.
# The binding at the reaction in the presence of 10 μM PK11195 was defined as non-specific binding of [3H]PK11195, and the difference between total binding and non-specific binding was defined as specific binding.
row,IC50 [nM],Compound
1,0.572,COc1ccccc1CN(C=O)c1ccccc1Oc1ccccc1 [Compound 087]
2,0.163,CCOc1ccccc1CN(C=O)c1ccccc1Oc1ccccc1 [Compound 088]
3,3.51,"COc1ccccc1CN(C(N)=O)c1ccccc1Oc1ccccc1 [Compound 089, N-Aminocarbonyl-N-(2-methoxybenzyl)-2-phenoxyaniline]"
4,4.64,"CNC(=O)N(Cc1ccccc1OC)c1ccccc1Oc1ccccc1 [Compound 090, N-(2-Methoxybenzyl)-N-(N-methylaminocarbonyl)-2-phenoxyaniline]"
5,1.83,CCOc1ccccc1CN(C(=O)NC)c1ccccc1Oc1ccccc1 [Compound 091]
6,0.722,CCCOc1ccccc1CN(C(=O)NC)c1ccccc1Oc1ccccc1 [Compound 092]
7,0.87,CNC(=O)N(Cc1ccccc1OC(C)C)c1ccccc1Oc1ccccc1 [Compound 093]
8,0.925,CCCCCOc1ccccc1CN(C(=O)NC)c1ccccc1Oc1ccccc1 [Compound 094]
9,3.77,"CNC(=O)N(Cc1cc(OC)ccc1OC)c1ccccc1Oc1ccccc1 [Compound 095, N-(2,5-Dimethoxybenzyl)-N-(N-methylaminocarbonyl)-2-phenoxyaniline]"
10,0.498,"COC(=O)N(Cc1ccccc1OC)c1ccccc1Oc1ccccc1 [Compound 098, N-(2-Methoxybenzyl)-N-methoxycarbonyl-2-phenoxyaniline]"
11,0.87,CCOC(=O)N(Cc1ccccc1OC)c1ccccc1Oc1ccccc1 [Compound 099]
12,0.112,COc1ccccc1CN(C(C)=O)c1ccccc1Oc1ccccc1C [Compound 100]
13,0.285,COc1ccccc1CN(C(C)=O)c1ccccc1Oc1cccc(C)c1 [Compound 101]
14,0.123,COc1ccccc1CN(C(C)=O)c1ccccc1Oc1ccc(C)cc1 [Compound 102]
15,0.722,COc1ccccc1CN(C(C)=O)c1ccccc1Oc1ccccc1OC [Compound 103]
16,0.343,COc1cccc(Oc2ccccc2N(Cc2ccccc2OC)C(C)=O)c1 [Compound 104]
17,0.163,COc1ccc(Oc2ccccc2N(Cc2ccccc2OC)C(C)=O)cc1 [Compound 105]
18,0.413,COc1ccccc1CN(C(C)=O)c1ccccc1Oc1cccc(F)c1 [Compound 108]
19,0.285,COc1ccccc1CN(C(C)=O)c1ccccc1Oc1ccc(F)cc1 [Compound 109]
20,8.9,COc1ccccc1CN(C(C)=O)c1ccccc1Oc1ccc(Cl)cc1 [Compound 110]
21,0.376,COc1ccccc1CN(C(C)=O)c1ccccc1Oc1ccc(F)cc1F [Compound 112]
22,0.343,COc1ccccc1CN(C(C)=O)c1ccc(F)cc1Oc1ccccc1 [Compound 116]
23,0.792,COc1ccccc1CN(C(C)=O)c1cc(F)ccc1Oc1ccccc1 [Compound 117]
24,0.498,COc1ccccc1CN(C(C)=O)c1c(F)cccc1Oc1ccccc1 [Compound 118]
25,0.196,COc1ccccc1CN(C(C)=O)c1ccc(Cl)cc1Oc1ccccc1 [Compound 120]
26,2.01,COc1ccccc1CN(C(C)=O)c1cc(Cl)ccc1Oc1ccccc1 [Compound 121]
27,0.343,COc1ccccc1CN(C(C)=O)c1cc(C)ccc1Oc1ccccc1 [Compound 124]
28,8.11,COc1ccc(Oc2ccccc2)c(N(Cc2ccccc2OC)C(C)=O)c1 [Compound 126]
29,3.51,COc1ccccc1CN(C(C)=O)c1ccc(Oc2ccccc2)cc1Oc1ccccc1 [Compound 127]
